Results as given in ChEMBL document CHEMBL3085700 (J Med Chem, 2013).
Calls of active or inactive are those of the source. The calls are words filed in the database; no cut-off is given here.

Assays:
[1] = target: T1, Fatty-acid amide hydrolase 1 (Homo sapiens, UniProt O00519); assay: Inhibition of human recombinant FAAH overexpressed in African green monkey COS7 cells using [3H]-anandamide as substrate preincubated for 10 mins before substrate addition measured after 10 mins by liquid scintillation counting analysis; type: cell-based, COS-7
T1 sequence (O00519 whole entry): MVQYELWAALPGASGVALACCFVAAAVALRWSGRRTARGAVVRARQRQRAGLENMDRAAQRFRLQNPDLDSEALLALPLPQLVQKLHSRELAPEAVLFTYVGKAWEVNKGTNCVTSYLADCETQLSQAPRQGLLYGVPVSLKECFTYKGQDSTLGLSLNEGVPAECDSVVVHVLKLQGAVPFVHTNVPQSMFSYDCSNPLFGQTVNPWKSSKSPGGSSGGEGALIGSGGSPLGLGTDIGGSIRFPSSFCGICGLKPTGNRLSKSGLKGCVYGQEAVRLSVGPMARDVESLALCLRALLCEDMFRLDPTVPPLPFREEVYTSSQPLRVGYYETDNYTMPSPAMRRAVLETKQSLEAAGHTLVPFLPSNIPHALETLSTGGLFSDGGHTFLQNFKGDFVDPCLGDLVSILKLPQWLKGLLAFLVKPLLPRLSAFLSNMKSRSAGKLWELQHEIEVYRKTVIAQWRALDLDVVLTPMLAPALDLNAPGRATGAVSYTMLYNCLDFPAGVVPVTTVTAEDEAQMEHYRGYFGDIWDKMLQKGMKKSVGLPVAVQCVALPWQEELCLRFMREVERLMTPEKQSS

[2] = target: T2, Monoacylglycerol lipase ABHD6 (Homo sapiens) (UniProt Q9BV23); assay: Inhibition of human ABHD6 overexpressed in HEK293 cells assessed as 2-AG hydrolysis at 1 uM by fluorescent glycerol assay; type: cell-based
T2 sequence (whole entry): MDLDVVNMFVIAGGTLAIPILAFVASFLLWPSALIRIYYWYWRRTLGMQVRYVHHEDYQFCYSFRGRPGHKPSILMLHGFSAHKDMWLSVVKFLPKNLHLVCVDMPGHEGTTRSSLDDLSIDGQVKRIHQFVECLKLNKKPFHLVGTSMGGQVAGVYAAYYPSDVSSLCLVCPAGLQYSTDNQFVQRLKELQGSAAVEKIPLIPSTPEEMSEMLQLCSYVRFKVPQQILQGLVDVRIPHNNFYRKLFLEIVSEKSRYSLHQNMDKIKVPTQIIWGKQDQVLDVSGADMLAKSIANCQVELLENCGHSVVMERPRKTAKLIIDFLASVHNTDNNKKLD

[3] = target: T3, Prostaglandin G/H synthase 2 (Homo sapiens) (UniProt P35354); assay: Inhibition of human recombinant COX-2 using arachidonic acid as substrate assessed as oxygen consumption at 30 to 100 uM measured within 10 to 50 secs relative to control
T3 sequence (whole entry): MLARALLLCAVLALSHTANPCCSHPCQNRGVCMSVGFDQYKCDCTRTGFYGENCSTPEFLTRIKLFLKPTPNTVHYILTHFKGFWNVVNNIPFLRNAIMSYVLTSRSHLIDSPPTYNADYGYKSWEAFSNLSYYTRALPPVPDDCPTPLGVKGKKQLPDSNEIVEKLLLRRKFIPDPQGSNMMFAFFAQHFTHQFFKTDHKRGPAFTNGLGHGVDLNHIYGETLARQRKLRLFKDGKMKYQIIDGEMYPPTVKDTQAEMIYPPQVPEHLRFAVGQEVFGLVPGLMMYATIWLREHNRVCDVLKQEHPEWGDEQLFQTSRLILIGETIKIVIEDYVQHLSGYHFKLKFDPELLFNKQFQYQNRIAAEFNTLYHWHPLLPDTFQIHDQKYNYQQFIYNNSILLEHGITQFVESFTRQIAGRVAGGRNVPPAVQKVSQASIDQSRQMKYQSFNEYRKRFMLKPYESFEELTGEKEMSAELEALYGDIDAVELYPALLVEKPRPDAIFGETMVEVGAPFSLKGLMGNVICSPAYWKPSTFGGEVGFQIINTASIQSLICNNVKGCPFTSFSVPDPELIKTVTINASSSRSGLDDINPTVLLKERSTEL

[4] = target: T4, Fatty-acid amide hydrolase 1 (Mus musculus) (UniProt O08914); assay: Inhibition of TAMRA-FP-labeled FAAH in mouse brain membrane at 1 uM after 1 hr by fluorescent gel scanning assay; type: cell membranes
T4 sequence (whole entry): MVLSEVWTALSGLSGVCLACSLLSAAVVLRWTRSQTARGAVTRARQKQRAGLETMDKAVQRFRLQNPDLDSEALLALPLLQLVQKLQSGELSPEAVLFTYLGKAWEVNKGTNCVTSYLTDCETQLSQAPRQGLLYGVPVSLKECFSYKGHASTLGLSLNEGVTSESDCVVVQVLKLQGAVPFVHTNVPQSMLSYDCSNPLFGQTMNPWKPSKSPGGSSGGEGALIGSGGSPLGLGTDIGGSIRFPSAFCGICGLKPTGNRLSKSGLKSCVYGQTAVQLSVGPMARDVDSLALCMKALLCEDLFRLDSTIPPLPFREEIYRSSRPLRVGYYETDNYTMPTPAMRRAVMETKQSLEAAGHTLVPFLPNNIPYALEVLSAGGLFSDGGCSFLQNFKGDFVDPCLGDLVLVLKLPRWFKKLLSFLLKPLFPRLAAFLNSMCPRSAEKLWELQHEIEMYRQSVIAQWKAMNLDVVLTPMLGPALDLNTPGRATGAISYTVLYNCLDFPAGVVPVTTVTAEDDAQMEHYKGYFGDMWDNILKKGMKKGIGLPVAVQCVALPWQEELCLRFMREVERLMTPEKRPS

IC50 ([1]; read-out: IC50): 11 nM
IC50 ([1]; read-out: pIC50 (converted)): 11.5 nM
inhibition [2]: inactive
inhibition [3]: 30%
inhibition [4]: Active
SMILES: COc1nn([C@@H](C)c2ccc(CC(C)C)cc2)c(=O)o1
